Reference: patent publication US7811352B2, “Fertilizer compositions and methods of using” (priority 2005, dated 2010)

Experiments:
Format in all cases: in vivo
[1] = test system: Moonlight Kentucky bluegrass; assay: Phytotoxic injury rating, Kentucky bluegrass lawn (Example 17)
From the text: (§1) In this Example, the effect of a fertilizer comprising lysine on cool season lawn variety turfgrass growth was examined. The effects of lysine (HCl) and LIQUID LYSINE on a common variety of law turfgrass (Moonlight Kentucky bluegrass) were compared with those of urea, Milorganite and a blended fertilizer (a blend of methylene urea and urea in an approximately 1:1 ratio).
(§2) Fifteen fertilizer treatments comprising three concentrations of each fertilizer composition (Milorganite N—P—K, 6-2-0), urea (N—P—K, 46-0-0), a blended fertilizer, LIQUID LYSINE (N—P—K, 10-2-1), and lysine (HCl) (N—P—K, 15-2-1)) were prepared and applied to 3 replications of newly established “Moonlight” variety Kentucky bluegrass lawn turfgrass. The urea, lysine (HCl), and LIQUID LYSINE were dissolved/suspended in 1.5 gal water prior to application. […], […], The urea, LIQUID LYSINE and lysine (HCl) were applied as foliar liquids, while Milorganite and the blended fertilizer were applied as granular fertilizers. Plot size was 4 ft×8 ft laid out in a replicated complete block design. Plots were mowed at 2.0 inches before fertilizer application and mowed two times per week to 2.0 inch height. Grass clippings were not removed from the plots and no supplemental cultural maintenance or pest management was applied. Irrigation (0.15 inch) was applied following application and thereafter only when necessary to insure survival of the turf. Plots were rated for turfgrass quality (scale of 1-9 where 9=dark green turf, 1=dead/brown turf, and 6=minimally acceptable turf) and phytotoxic injury (scale of 0-9 where 9=significant foliar injury and 2=minimally objectionable foliar injury) throughout the study period. Quality was measured prior to application (day 0) and day 37, day 70 and day 95 after application. Injury was measured on day 37 and day 70 after application. In addition, blade density of the grass was measured on day 70 after application (scale of 1-9, where 9=very dense turf, 1=low density turf). All data was subject to statistical analysis and significant means were determined.

[2] = test system: Moonlight Kentucky bluegrass; assay: Turfgrass quality rating, Kentucky bluegrass lawn (Example 17)
From the text: as §1, §2

[3] = test system: Floratam St. Augustine grass; assay: Phytotoxicity rating, St. Augustine grass (Example 9); conditions: for Phytotoxicity - St. Augustine Grass: scale 0-5, 5=worst
From the text: In this Example, the effect of a fertilizer comprising lysine on warn season turfgrass growth was examined. The effects of lysine (HCl) and LIQUID LYSINE on a common type of lawn quality turfgrass (St. Augustine grass) were compared with those of urea and Milorganite. St. Augustine grass is a commonly utilized turfgrass throughout the warm, tropical zones for lawn turf and is a commercially significant species.
Twelve fertilizer treatments comprising three concentrations of each fertilizer composition (Milorganite (N—P—K, 6-2-0), urea N—P—K, 46-0-0), LIQUID LYSINE (N—P—K, 10-2-1), and lysine (HCl) (N—P—K, 15-2-1)) were prepared and applied to 4 replications of Floratam St. Augustine grass. The lysine (HCl) was dissolved in water prior to application. Each fertilizer treatment was applied in concentrations of 0.5 lb N/1000 ft^2/month, 1.0 lb N/1000 ft^2/month and 3.0 lb N/1000 ft^2/month. The urea, LIQUID LYSINE and lysine (HCl) were applied as foliar liquids, while Milorganite was applied as a granular fertilizer. Plot size was 1 m×2 m set up as a randomized complete block. Plots were mowed at 3.0 inches before fertilizer application. Irrigation (0.15 inch) was applied following application. Plots were rated for turfgrass quality and color (scale of 1-10 where 10=dark green turf, 1=dead/brown turf; and 6=minimally acceptable turf) and phytotoxicity (scale of 0-5, where 5=worst, and 2=minimally objectionable) throughout the study period. Quality, color, and phytotoxicity were measured on 2 days before application (day −2) and day 2, day 5, day 15 and day 21 after application. All data was subject to statistical analysis and significant means were determined. Average turfgrass quality ratings for the treatments are presented in Table 6 and the quality results for application rates of 1.0 lb N/1000 ft^2/month are graphically presented in FIG. 2.

[4] = Weekly Rate 0.5 lbs N/1000 ft^2, Day 37
[5] = Weekly Rate 0.5 lbs N/1000 ft^2, Day 70
[6] = Weekly Rate 1.0 lbs N/1000 ft^2, Day 37
[7] = Weekly Rate 1.0 lbs N/1000 ft^2, Day 70
[8] = Weekly Rate 3.0 lbs N/1000 ft^2, Day 37
[9] = Weekly Rate 3.0 lbs N/1000 ft^2, Day 70
[10] = Weekly Rate 0.5 lbs N/1000 ft^2, Day 0
[11] = Weekly Rate 0.5 lbs N/1000 ft^2, Day 95
[12] = Weekly Rate 1.0 lbs N/1000 ft^2, Day 0
[13] = Weekly Rate 1.0 lbs N/1000 ft^2, Day 95
[14] = Weekly Rate 3.0 lbs N/1000 ft^2, Day 0
[15] = Weekly Rate 3.0 lbs N/1000 ft^2, Day 95
[16] = Monthly Rate 0.5 lbs N/1000 ft^2, Day 2
[17] = Monthly Rate 0.5 lbs N/1000 ft^2, Day 5
[18] = Monthly Rate 0.5 lbs N/1000 ft^2, Day 15
[19] = Monthly Rate 0.5 lbs N/1000 ft^2, Day 21
[20] = Monthly Rate 0.5 lbs N/1000 ft^2, Day −2 (before application)
[21] = Monthly Rate 1.0 lbs N/1000 ft^2, Day 2
[22] = Monthly Rate 1.0 lbs N/1000 ft^2, Day 5
[23] = Monthly Rate 1.0 lbs N/1000 ft^2, Day 15
[24] = Monthly Rate 1.0 lbs N/1000 ft^2, Day 21
[25] = Monthly Rate 1.0 lbs N/1000 ft^2, Day −2 (before application)
[26] = Monthly Rate 3.0 lbs N/1000 ft^2, Day 2
[27] = Monthly Rate 3.0 lbs N/1000 ft^2, Day 5
[28] = Monthly Rate 3.0 lbs N/1000 ft^2, Day 15
[29] = Monthly Rate 3.0 lbs N/1000 ft^2, Day 21
[30] = Monthly Rate 3.0 lbs N/1000 ft^2, Day −2 (before application)

## Cl.NCCCC[C@H](N)C(=O)O [Lys (HCl) 15% N, L-lysine monohydrochloride]
[1]; [4]
  Injury Rating - Kentucky Bluegrass: 1.7de
[1]; [5]
  Injury Rating - Kentucky Bluegrass: 5.0c
[1]; [6]
  Injury Rating - Kentucky Bluegrass: 2.7cd
[1]; [7]
  Injury Rating - Kentucky Bluegrass: 6.0abc
[1]; [8]
  Injury Rating - Kentucky Bluegrass: 6.3a
[1]; [9]
  Injury Rating - Kentucky Bluegrass: 7.0ab
[2]; [10]
  Quality Rating - Kentucky Bluegrass: 5.0cde
[2]; [4]
  Quality Rating - Kentucky Bluegrass: 5.3b
[2]; [5]
  Quality Rating - Kentucky Bluegrass: 4.3cd
[2]; [11]
  Quality Rating - Kentucky Bluegrass: 5.7ab
[2]; [12]
  Quality Rating - Kentucky Bluegrass: 5.3bcd
[2]; [6]
  Quality Rating - Kentucky Bluegrass: 7.3a
[2]; [7]
  Quality Rating - Kentucky Bluegrass: 6.0ab
[2]; [13]
  Quality Rating - Kentucky Bluegrass: 6.0a
[2]; [14]
  Quality Rating - Kentucky Bluegrass: 6.3ab
[2]; [8]
  Quality Rating - Kentucky Bluegrass: 8.0a
[2]; [9]
  Quality Rating - Kentucky Bluegrass: 6.7a
[2]; [15]
  Quality Rating - Kentucky Bluegrass: 5.7ab
[3]; [16]
  Phytotoxicity - St. Augustine Grass: 0.0c
[3]; [17]
  Phytotoxicity - St. Augustine Grass: 0.4cd
[3]; [18]
  Phytotoxicity - St. Augustine Grass: 0
[3]; [19]
  Phytotoxicity - St. Augustine Grass: 0
[3]; [20]
  Phytotoxicity - St. Augustine Grass: 0
[3]; [21]
  Phytotoxicity - St. Augustine Grass: 0.0c
[3]; [22]
  Phytotoxicity - St. Augustine Grass: 1.1bcd
[3]; [23]
  Phytotoxicity - St. Augustine Grass: 0
[3]; [24]
  Phytotoxicity - St. Augustine Grass: 0
[3]; [25]
  Phytotoxicity - St. Augustine Grass: 0
[3]; [26]
  Phytotoxicity - St. Augustine Grass: 0.4bc
[3]; [27]
  Phytotoxicity - St. Augustine Grass: 1.1bcd
[3]; [28]
  Phytotoxicity - St. Augustine Grass: 0
[3]; [29]
  Phytotoxicity - St. Augustine Grass: 0
[3]; [30]
  Phytotoxicity - St. Augustine Grass: 0

## NC(N)=O [Urea, urea, reference compound]
[1]; [4]
  Injury Rating - Kentucky Bluegrass: 1.0e
[1]; [5]
  Injury Rating - Kentucky Bluegrass: 5.0c
[1]; [6]
  Injury Rating - Kentucky Bluegrass: 1.3e
[1]; [7]
  Injury Rating - Kentucky Bluegrass: 5.7bc
[1]; [8]
  Injury Rating - Kentucky Bluegrass: 3.3bc
[1]; [9]
  Injury Rating - Kentucky Bluegrass: 7.0ab
[2]; [10]
  Quality Rating - Kentucky Bluegrass: 4.7de
[2]; [4]
  Quality Rating - Kentucky Bluegrass: 6.0b
[2]; [5]
  Quality Rating - Kentucky Bluegrass: 4.3cd
[2]; [11]
  Quality Rating - Kentucky Bluegrass: 4.3ab
[2]; [12]
  Quality Rating - Kentucky Bluegrass: 5.0cde
[2]; [6]
  Quality Rating - Kentucky Bluegrass: 7.7a
[2]; [7]
  Quality Rating - Kentucky Bluegrass: 5.3bc
[2]; [13]
  Quality Rating - Kentucky Bluegrass: 6.3a
[2]; [14]
  Quality Rating - Kentucky Bluegrass: 6.3ab
[2]; [8]
  Quality Rating - Kentucky Bluegrass: 8.0a
[2]; [9]
  Quality Rating - Kentucky Bluegrass: 6.7a
[2]; [15]
  Quality Rating - Kentucky Bluegrass: 4.3ab
[3]; 1.0 lb N/1000 ft^2 and 3.0 lb N/1000 ft^2 application rate
  phytotoxicity: some phytotoxicity
[3]; [16]
  Phytotoxicity - St. Augustine Grass: 0.6bc
[3]; [17]
  Phytotoxicity - St. Augustine Grass: 1.6bc
[3]; [18]
  Phytotoxicity - St. Augustine Grass: 0
[3]; [19]
  Phytotoxicity - St. Augustine Grass: 0
[3]; [20]
  Phytotoxicity - St. Augustine Grass: 0
[3]; [21]
  Phytotoxicity - St. Augustine Grass: 1.5b
[3]; [22]
  Phytotoxicity - St. Augustine Grass: 2.0ab
[3]; [23]
  Phytotoxicity - St. Augustine Grass: 0
[3]; [24]
  Phytotoxicity - St. Augustine Grass: 0
[3]; [25]
  Phytotoxicity - St. Augustine Grass: 0
[3]; [26]
  Phytotoxicity - St. Augustine Grass: 2.8a
[3]; [27]
  Phytotoxicity - St. Augustine Grass: 3.0a
[3]; [28]
  Phytotoxicity - St. Augustine Grass: 0
[3]; [29]
  Phytotoxicity - St. Augustine Grass: 0
[3]; [30]
  Phytotoxicity - St. Augustine Grass: 0
